Measured values taken from US20150105252A1, “SUBSTITUTED PYRAZOLES AS HERBICIDES” (E I DU PONT DE NEMOURS AND COMPANY, priority 2013, published 2015).

Legend:
[1] = test system: soybean; test: Test C postemergence; type: in vivo, Glycine max; conditions: postemergence; for Soybean plant response rating: 62 g ai/ha, scale 0 to 100
Description: (§1) Seeds of plant species selected from blackgrass (Alopecurus myosuroides), ryegrass, Italian (Italian ryegrass, Lolium multiflorum), wheat (winter wheat, Triticum aestivum), galium (catchweed bedstraw, Galium aparine), corn (Zea mays), crabgrass, large (large crabgrass, Digitaria sanguinalis), foxtail, giant (giant foxtail, Setaria faberii), johnsongrass (Sorghum halepense), lambsquarters (Chenopodium album), morningglory (Ipomoea coccinea), nutsedge, yellow (yellow nutsedge, Cyperus esculentus), pigweed (redroot pigweed, Amaranthus retroflexus), ragweed (common ragweed, Ambrosia elation), soybean (Glycine max), barnyardgrass (Echinochloa crus-galli), oilseed rape (Brassica napus), waterhemp (common waterhemp, Amaranthus rudis), oat, wild (wild oat, Avena fatua), kochia (Kochia scoparia), Surinam grass (Brachiaria decumbens), foxtail, green (green foxtail, Setaria viridis), goosegrass (Eleusine indica), bromegrass, downy (downy bromegrass, Bromus tectorum), nightshade (eastern black nightshade, Solanum ptycanthum), cocklebur (common cocklebur, Xanthium strumarium), cupgrass, woolly (woolly cupgrass, Eriochloa villosa), bermudagrass (Cynodon dactylon), sunflower, (common oilseed sunflower, Helianthus annuus), Russian thistle (Salsola kali), and velvetleaf (Abutilon theophrasti) were planted into a blend of loam soil and sand and treated preemergence with test chemicals formulated in a non-phytotoxic solvent mixture which included a surfactant.
(§2) At the same time, plants selected from these crop and weed species and also chickweed (common chickweed, Stellaria media), canarygrass (littleseed canarygrass, Phalaris minor), and deadnettle (henbit deadnettle, Lamium amplexicaule), were planted in pots containing Redi-Earth® planting medium (Scotts Company, 14111 Scottslawn Road, Marysville, Ohio 43041) comprising spaghnum peat moss, vermiculite, wetting agent and starter nutrients and treated with postemergence applications of test chemicals formulated in the same manner. Plants ranged in height from 2 to 18 cm (1- to 4-leaf stage) for postemergence treatments. Treated plants and controls were maintained in a greenhouse for 13 to 15 days, after which time all species were compared to controls and visually evaluated. Plant response ratings, summarized in Table C, are based on a scale of 0 to 100 where 0 is no effect and 100 is complete control. A dash (-) response means no test result.

[2] = test system: corn; test: Test A preemergence; type: in vivo, Zea mays
Procedure, shortened: (§3)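 Ratings express plant response from 0 (no effect) to 100 (complete control), judged visually against untreated controls after approximately 10 days in the greenhouse. Preemergence applications were made as directed soil sprays onto seeded loam–sand mix, and postemergence applications onto 2–10 cm plants at one- to two-leaf stage.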

[3] = test system: lambsquarters; test: Test C postemergence; type: in vivo, Chenopodium album; conditions: for Lambsquarters plant response rating: scale 0 to 100
Description: as §1, §2

[4] = test system: pigweed; test: Test C postemergence; type: in vivo, Amaranthus retroflexus; conditions: for Pigweed plant response rating: scale 0 to 100
Description: as §1, §2

[5] = test system: morningglory; test: Test A preemergence; type: in vivo, Ipomoea spp.
Procedure, shortened: as §3

[6] = test system: pigweed; test: Test A postemergence; type: in vivo, Amaranthus retroflexus
Procedure, shortened: as §3

[7] = test system: ryegrass, Italian; test: Test C preemergence; type: in vivo, Lolium multiflorum; conditions: for Plant response rating (scale of 0 to 100), Ryegrass, Italian: 250 g ai/ha
Description: as §1, §2

[8] = test system: ryegrass, Italian; test: Test C postemergence; type: in vivo, Lolium multiflorum; conditions: postemergence
Description: as §1, §2

[9] = test system: crabgrass, large; test: Test A postemergence; type: in vivo, Digitaria sanguinalis
Procedure, shortened: as §3

[10] = test system: wheat; test: Test C preemergence; type: in vivo, Triticum aestivum; conditions: for Plant response rating (scale of 0 to 100), Wheat: 250 g ai/ha
Description: as §1, §2

[11] = test system: oat, wild; test: Test C postemergence; type: in vivo, Avena fatua; conditions: for Oat, Wild plant response rating: scale 0 to 100
Description: as §1, §2

[12] = test system: ragweed; test: Test C preemergence; type: in vivo, Ambrosia elation; conditions: for Plant response rating (scale of 0 to 100), Ragweed: 250 g ai/ha
Description: as §1, §2

[13] = test system: sedge, umbrella; test: Test B flood; type: in vivo, Cyperus difformis; conditions: 250 g ai/ha, visual rating on 0 to 100 scale (0 no effect, 100 complete control), 13 to 15 days
Procedure, shortened: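 At two leaves, seedlings received the test compound via the paddy water, pots having been flooded 3 cm over the soil surface and kept so. Greenhouse-held for 13 to 15 days, then judged by eye against controls on a scale running 0 (no effect) to 100 (complete control).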

[14] = 250 g ai/ha, scale 0 to 100 (0 no effect, 100 complete control)
[15] = 125 g ai/ha, scale 0 to 100, 0 no effect, 100 complete control
[16] = Preemergence, 500 g ai/ha, 0 to 100 scale, 0 no effect, 100 complete control
[17] = preemergence, 125 g ai/ha, visual injury, 0 to 100 scale, approx. 10 days
[18] = postemergence, 250 g ai/ha, scale 0 to 100 (0 no effect, 100 complete control)
[19] = postemergence, 62 g ai/ha, scale 0 to 100, 0 no effect, 100 complete control
[20] = postemergence, 125 g ai/ha, scale 0 to 100, 0 no effect, 100 complete control
[21] = Postemergence, 500 g ai/ha, visual rating after approx. 10 days, 0 to 100 scale (0 no effect, 100 complete control)
[22] = postemergence, 125 g ai/ha, about 10 days, visual rating on 0 to 100 scale (0 no effect, 100 complete control)
[23] = preemergence, 31 g ai/ha, scale 0 to 100 (0 no effect, 100 complete control), 13 to 15 days
[24] = preemergence, 62 g ai/ha, 13 to 15 days, scale 0 to 100, 0 = no effect, 100 = complete control
[25] = preemergence, 125 g ai/ha, scale 0 to 100, 0 is no effect, 100 is complete control
[26] = preemergence, 500 g ai/ha, visual injury after approx. 10 days, 0 to 100 scale (0 no effect, 100 complete control)
[27] = Postemergence, 500 g ai/ha, 0 to 100 scale (0 no effect, 100 complete control)
[28] = Preemergence, 4 g ai/ha, scale 0 to 100
[29] = Preemergence, 8 g ai/ha, scale 0 to 100
[30] = Preemergence, 16 g ai/ha, scale 0 to 100
[31] = preemergence, 31 g ai/ha, visual rating, scale 0 to 100 (0 no effect, 100 complete control), 13 to 15 days

## CCc1cc(C(=O)NOC(C)C)nn1Cc1cccc(OC(F)(F)F)c1 [Compound 70]
[1]
  Soybean plant response rating: 55
[1]; [14]
  Plant response rating, Soybean: 65
[1]; [15]
  Plant response rating, Soybean: 55
[2]; [16]
  Corn plant response rating: 80
[2]; [17]
  Corn plant response rating: 50
[3]; Postemergence, 31 g ai/ha
  Lambsquarters plant response rating: 75
[3]; [18]
  Plant response rating, Lambsquarters: 98
[3]; [19]
  Plant response rating, Lambsquarters: 95
[3]; [20]
  Plant response rating, Lambsquarters: 95
[4]; Postemergence, 31 g ai/ha
  Pigweed plant response rating: 60
[4]; [18]
  Plant response rating, Pigweed: 75
[4]; [19]
  Plant response rating, Pigweed: 65
[4]; [20]
  Plant response rating, Pigweed: 70
[5]; [16]
  Morningglory plant response rating: 100
[5]; [17]
  Morningglory plant response rating: 80
[6]; [21]
  Pigweed plant response rating: 100
[6]; [22]
  Pigweed plant response rating: 90
[7]; Preemergence
  Plant response rating (scale of 0 to 100), Ryegrass, Italian: 80
[7]; [23]
  Ryegrass, Italian plant response rating: 20
[7]; [24]
  Plant response rating, Ryegrass, Italian: 30
[7]; [25]
  Ryegrass, Italian plant response rating: 60
[8]; [14]
  Plant response rating, Ryegrass, Italian: 50
[8]; 62 g ai/ha, scale 0 to 100, 0 no effect, 100 complete control
  Plant response rating, Ryegrass, Italian: 25
[8]; [15]
  Plant response rating, Ryegrass, Italian: 35
[9]; [21]
  Crabgrass, Large plant response rating: 90
[9]; [22]
  Crabgrass, Large plant response rating: 90
[10]; Preemergence
  Plant response rating (scale of 0 to 100), Wheat: 75
[10]; [23]
  Wheat plant response rating: 5
[10]; [24]
  Plant response rating, Wheat: 10
[10]; [25]
  Wheat plant response rating: 65
[11]; Postemergence, 31 g ai/ha
  Oat, Wild plant response rating: 20
[11]; [18]
  Plant response rating, Oat, Wild: 35
[11]; [19]
  Plant response rating, Oat, Wild: 20
[11]; [20]
  Plant response rating, Oat, Wild: 30
[12]; Preemergence
  Plant response rating (scale of 0 to 100), Ragweed: 40
[12]; [23]
  Ragweed plant response rating: 0
[12]; [24]
  Plant response rating, Ragweed: 25
[12]; [25]
  Ragweed plant response rating: 30

## CCONC(=O)c1cc(CC)n(Cc2cccc(OC(F)(F)F)c2)n1 [Compound 72]
[1]
  Soybean plant response rating: 20
[1]; [14]
  Plant response rating, Soybean: 40
[1]; [15]
  Plant response rating, Soybean: 35
[2]; [16]
  Corn plant response rating: 70
[2]; [17]
  Corn plant response rating: 50
[3]; Postemergence, 31 g ai/ha
  Lambsquarters plant response rating: 60
[3]; postemergence, 62 g ai/ha
  Lambsquarters plant response rating: 70
[3]; [18]
  Plant response rating, Lambsquarters: 98
[3]; [20]
  Plant response rating, Lambsquarters: 90
[4]; Postemergence, 31 g ai/ha
  Pigweed plant response rating: 45
[4]; postemergence, 62 g ai/ha
  Pigweed plant response rating: 45
[4]; [18]
  Plant response rating, Pigweed: 65
[4]; [20]
  Plant response rating, Pigweed: 65
[5]; [16]
  Morningglory plant response rating: 90
[5]; [17]
  Morningglory plant response rating: 60
[6]; [21]
  Pigweed plant response rating: 100
[6]; [22]
  Pigweed plant response rating: 90
[7]; Preemergence
  Plant response rating (scale of 0 to 100), Ryegrass, Italian: 95
[7]; [23]
  Ryegrass, Italian plant response rating: 40
[7]; [24]
  Plant response rating, Ryegrass, Italian: 85
[7]; [25]
  Ryegrass, Italian plant response rating: 85
[8]; 62 g ai/ha, scale 0 to 100
  Ryegrass, Italian plant response rating: 10
[8]; [14]
  Plant response rating, Ryegrass, Italian: 40
[8]; [15]
  Plant response rating, Ryegrass, Italian: 15
[9]; [21]
  Crabgrass, Large plant response rating: 90
[9]; [22]
  Crabgrass, Large plant response rating: 80
[10]; Preemergence
  Plant response rating (scale of 0 to 100), Wheat: 85
[10]; [23]
  Wheat plant response rating: 5
[10]; [24]
  Plant response rating, Wheat: 20
[10]; [25]
  Wheat plant response rating: 50
[11]; Postemergence, 31 g ai/ha
  Oat, Wild plant response rating: 5
[11]; postemergence, 62 g ai/ha
  Oat, Wild plant response rating: 5
[11]; [18]
  Plant response rating, Oat, Wild: 35
[11]; [20]
  Plant response rating, Oat, Wild: 20
[12]; Preemergence
  Plant response rating (scale of 0 to 100), Ragweed: 60
[12]; [23]
  Ragweed plant response rating: 0
[12]; [24]
  Plant response rating, Ragweed: 50
[12]; [25]
  Ragweed plant response rating: 55

## CCOc1cc(C(=O)NCC(F)(F)F)nn1Cc1cc(C(F)(F)F)nn1C [Compound 140]
[2]; [17]
  Corn plant response rating: 10
[2]; [26]
  Corn plant response rating: 80
[5]; [17]
  Morningglory plant response rating: 80
[5]; [26]
  Morningglory plant response rating: 100
[6]; [27]
  Pigweed plant response rating: 100
[6]; [22]
  Pigweed plant response rating: 100
[7]; [28]
  Plant response rating, Ryegrass, Italian: 0
[7]; [29]
  Plant response rating, Ryegrass, Italian: 5
[7]; [30]
  Plant response rating, Ryegrass, Italian: 10
[7]; [31]
  Ryegrass, Italian plant response rating: 55
[13]
  Plant response rating, Sedge, Umbrella: 95
[9]; [27]
  Crabgrass, Large plant response rating: 90
[9]; [22]
  Crabgrass, Large plant response rating: 70
[10]; [28]
  Plant response rating, Wheat: 0
[10]; [29]
  Plant response rating, Wheat: 0
[10]; [30]
  Plant response rating, Wheat: 0
[10]; [31]
  Wheat plant response rating: 35
[12]; [28]
  Plant response rating, Ragweed: 5
[12]; [29]
  Plant response rating, Ragweed: 5
[12]; [30]
  Plant response rating, Ragweed: 25
[12]; [31]
  Ragweed plant response rating: 70
